Assay results: patent publication US20260061065A1, “ANTIBODY DRUG CONJUGATES” (priority 2022, published 2026)

Legend:
Format in all cases: cell-based
[1] = tested on: EBC-1 lung cancer cells; experiment: CellTiter-Glo proliferation assay, EBC1
Method: (§1) OCUM-1: Stomach/gastric cancer—JCRB No. JCRB0192 cultured in DMEM+0.5 mM sodium pyruvate+10% FBS EBC-1: Lung cancer—JCRB No. JCRB0820 cultured in DMEM+10% FBS SKCO-1: Colon cancer—ATCC No. HTB-39 cultured in Eagle's Minimum Essential Medium+10% FBS The Her2 antibody drug conjugates were tested against nine endogenous cancer cell lines. NCI-N87: Stomach/gastric cancer—ATCC No. CRL-5822 cultured in RPMI-1640+10% FBS The PCAD antibody drug conjugates were tested against nine endogenous cancer cell lines. BICR-22: Tongue cancer—ECACC No. 04072106 cultured in DMEM+2 mM Glutamine+2% FBS+0.4 micrograms/ml Hydrocortisone
(§2) The ability of the antibody drug conjugates to inhibit cell proliferation and survival was assessed using the Promega CellTiter-Glo® proliferation assay.
(§3) Cell lines were cultured in media that is optimal for their growth at 5% CO2, 37° C. in a tissue culture incubator. […] On the day of seeding, cell viability and cell density were determined using a cell counter (Vi-Cell XR Cell Viability Analyzer, Beckman Coulter). […] Plates were incubated at 5% CO2, 37° C. for 5 days in a tissue culture incubator, after which cell viability was assessed through the addition of 25 μL of CellTiter Glo® (Promega, cat #G7573), a reagent which lyses cells and measures total adenosine triphosphate (ATP) content. […]

[2] = tested on: OCUM-1 stomach/gastric cancer cells; experiment: CellTiter-Glo proliferation assay, OCUM1
Method: as §1, §2, §3

[3] = tested on: SKCO-1 colon cancer cells; experiment: CellTiter-Glo proliferation assay, SKCO1
Method: as §1, §2, §3

[4] = tested on: NCI-N87 stomach/gastric cancer cells; experiment: CellTiter-Glo proliferation assay, NCIN87
Method: as §1, §2, §3

[5] = tested on: BICR-22 tongue cancer cells; experiment: CellTiter-Glo proliferation assay, BICR22
Method: as §1, §2, §3

With `CCC(C)[C@@H]([C@@H](CC(=O)N1CCC[C@H]1[C@H](OC)[C@@H](C)C(=O)N[C@@H](Cc1ccccc1)c1nccs1)OC)N(C)C(=O)[C@@H](NC(=O)[C@H]1N[C@@H]2CC[C@H]1C2)C(C)C` (stereo partly shown) [Auristatin#1] the IC50 ([1]; Homo sapiens, EBC-1, 120 h) was 0.23 nM, the “Amax (Span)” value ([1]; Unconjugated drug cytotoxicity, EBC1, 5 days) was 77.0 and the IC50 ([2]; OCUM1, 120 h) was 1.38 nM. The “Amax (Span)” value ([2]; Unconjugated drug cytotoxicity, OCUM1, 5 days) was 72.3, the IC50 ([3]; Homo sapiens, SK-CO-1, 120 h) was 1.13 nM and the “Amax (Span)” value ([3]; Unconjugated drug cytotoxicity, SKCO1, 5 days) was 81.6. For the same molecule, the IC50 ([4]; Homo sapiens, NCI-N87, 120 h) was 1.2 nM, the “Amax (Span)” value ([4]; Unconjugated drug cytotoxicity, NCIN87, 5 days) was 75.7 and the IC50 ([5]; 120 h) was 0.271 nM. For the same molecule, the “Amax (Span)” value ([5]; Unconjugated drug cytotoxicity, BICR22, 5 days) was 89.7.
